Consider six molecules from patent publication US9730944B2, “Antiviral activity of novel bicyclic heterocycles” (priority 2010, dated 2017).

Structures are written as SMILES. ≈ marks a conversion by molar mass, not a printed value. Like-named read-outs stand apart in the source and are kept apart here.

The test system of one data set is poliovirus (PV type 1). Briefly: microbe, parasite or virus in culture. Format: cell-based. The following applies: Enterovirus C, read-out: PV-1 EC50.
For another data set, the system named is HIV-1 strain IIIB. Briefly: Inhibition of replication of HIV-1 (IIIB strain) in MT-4 cells, MTT assay. Format: cell-based. The following applies: Human immunodeficiency virus 1, IIIB, MT4, 120 h; MT-4 cells, MTT assay, five days after infection, 50% protection from cytopathic effect; read-out: EC50 (μM) HIV-1 (IIIB). (Tetrazolium assays rely on reduction of a dye to a coloured formazan, in cell work by metabolically active cells.)

In the next data set the test system is poliovirus (PV type 2). As to the kind of experiment: microbe, parasite or virus in culture. Format: cell-based. The settings on record: Enterovirus C, read-out: PV-2 EC50.
Data set [1] can be described thus: in vitro. The following applies: human.
Data set [2] can be described thus: in vitro. The settings on record: African green monkey, PV CC50.
The subject of the next data set is poliovirus (PV type 3). As to the kind of experiment: microbe, parasite or virus in culture. It is filed as cell-based. The following applies: Enterovirus C, read-out: PV-3 EC50.
In a further data set the test system is HIV-2 strain (ROD). Briefly: Inhibition of replication of HIV-2 (ROD strain) in MT-4 cells, MTT assay. It is filed as cell-based. The following applies: Human immunodeficiency virus 2, MT4, 120 h; MT-4 cells, MTT assay, five days after infection, 50% protection from cytopathic effect; read-out: EC50 (μM) HIV-2 (ROD).
Data set [3] in a line: in vitro. The following applies: human, PV CC50.

A word on the EC50: it is the concentration giving half of the maximal effect. For `Nc1nc(N2CCN(C(=O)COc3ccc(Cl)cc3)CC2)c2cc(-c3ccc(F)cc3)sc2n1` [Example 326, 1-(4-(2-amino-6-(4-fluorophenyl)thieno[2,3-d]pyrimidin-4-yl)piperazin-1-yl)-2-(4-chlorophenoxy)ethanone], the EC50 in the data set with poliovirus (PV type 1) (HeLa) is 0.13 µg/mL (≈ 0.261 µM); in the data set on poliovirus (PV type 1) (Vero), 0.037 µg/mL (≈ 0.0743 µM); in the data set on HIV-1 strain IIIB it was more than 27.7 µM; with poliovirus (PV type 2) (HeLa) it was 0.051 µg/mL (≈ 0.102 µM); in the data set with poliovirus (PV type 2) (Vero) it was 0.023 µg/mL (≈ 0.0462 µM); with poliovirus (PV type 3) (HeLa) it was 0.13 µg/mL (≈ 0.261 µM). The EC50 with poliovirus (PV type 3) (Vero) came out at 0.17 µg/mL (≈ 0.341 µM); in the data set with HIV-2 strain (ROD), 4.84 µM. In addition, the CC50 in “in vitro [1]” was 27.7 µM; in the data set “in vitro [2]”, 102 µg/mL (≈ 205 µM); in the data set “in vitro [3]” it was 35.2 µg/mL (≈ 70.7 µM).
In the case of `Cc1cccc(NC(=O)N2CCN(c3nc(N)nc4sc(-c5ccc(F)cc5)cc34)CC2)c1` [Example 359, 4-(2-amino-6-(4-fluorophenyl)thieno[2,3-d]pyrimidin-4-yl)-N-m-tolylpiperazine-1-carboxamide], the EC50 worked out at 0.94 µg/mL (≈ 2.03 µM) in the data set on poliovirus (PV type 1) (HeLa); 0.43 µg/mL (≈ 0.93 µM) in the data set with poliovirus (PV type 1) (Vero); 6.18 µM in the data set on HIV-1 strain IIIB; 0.41 µg/mL (≈ 0.886 µM) in the data set with poliovirus (PV type 2) (HeLa); 0.21 µg/mL (≈ 0.454 µM) in the data set on poliovirus (PV type 2) (Vero); 1.07 µg/mL (≈ 2.31 µM) in the data set with poliovirus (PV type 3) (HeLa). Also, the results for the EC50 with poliovirus (PV type 3) (Vero) and in the data set with HIV-2 strain (ROD) were 0.73 µg/mL (≈ 1.58 µM) and 10.4 µM, respectively. Moreover, the CC50 in the data set “in vitro [1]” is 140 µM; in “in vitro [2]”, more than 150 µg/mL; in the data set “in vitro [3]”, more than 50 µg/mL.
Consider `CCOC(=O)c1nc(N2CCN(C(=O)COc3ccc(Cl)cc3)CC2)c2cc(-c3ccc(F)cc3)sc2n1` [Example 353, ethyl 4-(4-(2-(4-chlorophenoxy)acetyl)piperazin-1-yl)-6-(4-fluorophenyl)thieno[2,3-d]pyrimidine-2-carboxylate], for which the EC50 with poliovirus (PV type 1) (HeLa) was more than 50 µg/mL; in the data set on poliovirus (PV type 1) (Vero), more than 50 µg/mL; in the data set on HIV-1 strain IIIB, more than 68.5 µM; in the data set with poliovirus (PV type 2) (HeLa) it was not below 50 µg/mL; with poliovirus (PV type 2) (Vero) it was not below 50 µg/mL; with poliovirus (PV type 3) (HeLa), more than 50 µg/mL. Also, the EC50 in the data set with poliovirus (PV type 3) (Vero) was more than 50 µg/mL; with HIV-2 strain (ROD), more than 68.5 µM. Also, the values for the CC50 in “in vitro [1]”, in the data set “in vitro [2]” and in “in vitro [3]” were 68.5 µM, more than 150 µg/mL and 41.3 µg/mL (≈ 74.4 µM), respectively.
Consider `O=C(COc1ccc(Cl)cc1)N1CCN(c2nc(-c3ccccc3)nc3sc(-c4ccc(F)cc4)cc23)CC1` [Example 352, 2-(4-chlorophenoxy)-1-(4-(6-(4-fluorophenyl)-2-phenylthieno[2,3-d]pyrimidin-4-yl)piperazin-1-yl)ethanone], for which the EC50 was more than 50 µg/mL with poliovirus (PV type 1) (HeLa); more than 50 µg/mL in the data set on poliovirus (PV type 1) (Vero); more than 224 µM in the data set with HIV-1 strain IIIB; not below 50 µg/mL with poliovirus (PV type 2) (HeLa); more than 50 µg/mL with poliovirus (PV type 2) (Vero); more than 50 µg/mL in the data set with poliovirus (PV type 3) (HeLa). Besides, the EC50 is more than 50 µg/mL in the data set with poliovirus (PV type 3) (Vero) and more than 224 µM in the data set with HIV-2 strain (ROD). Besides, the figures for the CC50 in “in vitro [1]”, in the data set “in vitro [2]” and in the data set “in vitro [3]” were more than 224 µM, more than 150 µg/mL and more than 50 µg/mL, respectively.
With `Nc1nc(N2CCN(C(=O)CCOc3ccc(F)cc3)CC2)c2nc(CCc3ccc(F)cc3)sc2n1` [Example 55, 1-(4-(5-amino-2-(4-fluorophenethyl)thiazolo[5,4-d]pyrimidin-7-yl)piperazin-1-yl)-3-(4-fluorophenoxy)propan-1-one], the EC50 is more than 50 µg/mL in the data set on poliovirus (PV type 1) (HeLa); more than 50 µg/mL with poliovirus (PV type 1) (Vero); more than 57.1 µM in the data set with HIV-1 strain IIIB; not below 50 µg/mL in the data set on poliovirus (PV type 2) (HeLa); not below 50 µg/mL in the data set on poliovirus (PV type 2) (Vero); more than 50 µg/mL in the data set with poliovirus (PV type 3) (HeLa). Also, the EC50 is more than 50 µg/mL with poliovirus (PV type 3) (Vero) and more than 57.1 µM with HIV-2 strain (ROD). Also, the results for the CC50 in the data set “in vitro [1]”, in the data set “in vitro [2]” and in “in vitro [3]” were 57.1 µM, 94.9 µg/mL (≈ 181 µM) and more than 50 µg/mL, respectively.
`COCCNC(=O)c1nc(N2CCN(C(=O)COc3ccc(Cl)cc3)CC2)c2cc(-c3ccc(F)cc3)sc2n1` [Example 356, 4-(4-(2-(4-chlorophenoxy)acetyl)piperazin-1-yl)-6-(4-fluorophenyl)-N-(2-methoxyethyl)thieno[2,3-d]pyrimidine-2-carboxamide]: the EC50 with poliovirus (PV type 1) (HeLa) was more than 50 µg/mL; with poliovirus (PV type 1) (Vero) it was more than 50 µg/mL; with HIV-1 strain IIIB it was more than 155 µM; in the data set on poliovirus (PV type 2) (HeLa), not below 50 µg/mL; with poliovirus (PV type 2) (Vero), not below 50 µg/mL; in the data set on poliovirus (PV type 3) (HeLa) it was more than 50 µg/mL. For the same molecule, the EC50 with poliovirus (PV type 3) (Vero) is more than 50 µg/mL; with HIV-2 strain (ROD) it was more than 155 µM. Also, the CC50 in the data set “in vitro [1]” is more than 155 µM; in “in vitro [2]”, 108 µg/mL (≈ 185 µM); in the data set “in vitro [3]” it was more than 50 µg/mL.
